Series [1] can be described thus: Solubility test for several solid acid addition salts. It counts as physicochemical. The protocol: The Solubility Test for Several Solid Acid Addition Salt
In general, it is necessary for a drug with good bioavailability to have a good solubility. Typically, the desired solubility of a drug in a pH range of 1-7.5 is at least 1 mg/ml.

For series [2], the system named is wistar rat. The series is described as follows: Current injury carotid artery thrombosis method (time of thrombosis formation). It counts as in vivo. The conditions noted are these: oral gavage, consecutive 3 days, 2 hours after the last administration. The procedure:
To compare the pharmacologic effect between the screened salts and the free compound of formula I, the following arterial thrombosis test was carried out with clopidogrel as the positive drug.
I. Investigation on the Time of Thrombosis Formation,
(§1) Animal: wistar rat, 220-260 g in weight, male, 6-8 each group.
Grouping: control group, positive drug group (clopidogrel, 10 mg/kg), free compound of formula I, hydrochloride of the compound of formula I and L-camphor sulfonate of the compound of formula I (two dosages for each group, 3 and 9 mg/kg respectively based on the free compound of formula I).
Method: current injury carotid artery thrombosis method and platelet aggregation test.
Drug Administration: oral gavage.
Index observed: the drug was administrated for consecutive 3 days. 2 hours after the last administration, current injury carotid artery thrombosis method was carried out to observe the time of thrombosis formation. Femoral artery blood was sampled and separated to obtain the platelet. The effect on platelet aggregation was investigated with inducing agent ADP for each group, and at the same time, the bleeding time was determined.

The test system of series [3] is wistar rat. The series is described as follows: Arteriovenous shunt thrombosis in polyethylene tube method (weight of thrombosis). The conditions noted are these: oral gavage, consecutive 3 days, 2 hours after the last administration, shunt lasted 15 min, wet or dry weight not stated. It counts as in vivo. The protocol: II. Investigation on the Weight of Thrombosis
as §1
Grouping: the same as above.
Method: Arteriovenous shunt thrombosis in polyethylene tube method.
Index Observed The drug was administrated for consecutive 3 days. 2 hours after the last administration, arteriovenous anastomosis thrombosis was lasted for 15 min, the wet weight and dry weight of the thrombosis formed was investigated.

The nature of series [4]: Water solubility of the free compound (inventor's research). It counts as physicochemical.
Series [5] in a line: Stability of the free compound in aqueous solution with weak acid or base. It counts as physicochemical. To be noted: presence of weak acid or base in an aqueous solution for a period of time; produces degradation products.
Series [6] in a line: Accelerated stability test of the sulfonates formulated into tablets or capsules. It counts as physicochemical. To be noted: tablets or capsules with excipients, 50° C.±2° C., relative humid of 75% ±5%, end of the third month, TLC, stable = no occurrence of impurity. The protocol: A solid active ingredient with excellent stability is necessary for a solid formulation. To screen a suitable salt with chemical stability, the sulfonates prepared above was formulated into tablets or capsules with powdered excipients. The tablets included microcrystalline cellulose and anhydrous calcium dihydrogen phosphate with a ratio of 1:1. The capsules included Mannitol and Corn starch with a ratio of 4:1. And then, the tablets and the capsules were placed at the temperature of 50° C.±2° C. (incubator with constant temperature and humidity) with relative humid of 75% ±5% (saturated sodium chloride solution) for accelerated test. Sampling at the end of the third month, the tablets and the capsules were crushed and extracted with methanol:chloroform (1:1), and TLC was used to check the stability of the product and the salt was deemed as stable with no occurrence of impurity.

The mark [7] stands for this setting: 3 mg/kg based on the free compound of formula I.
Setting [8] is: 9 mg/kg based on the free compound of formula I.

Structures can show the parent of a compound that is named as a salt. Where two headings read alike, the source gives them in different places.

For `COC(=O)C(c1ccccc1Cl)N1CCc2sc(OC(=O)c3ccccc3OC(C)=O)cc2C1` (centres unmarked) [Benzenesulfonate], in series [1] (read-out: Solubility), the Solubility (commonly the concentration that dissolves in the medium under given conditions) worked out at 2500 µg/mL.

In turn, `COC(=O)[C@H](c1ccccc1Cl)N1CCc2sccc2C1` [Clopidogrel, clopidogrel, reference compound] showed a Thrombosis formation time in the series on wistar rat [2] (10 mg/kg) of 249.9 ± 58.0 s. Moreover, the Weight of thrombosis in the series with wistar rat [3] (10 mg/kg) is 3.2 ± 0.5 mg.

Take `COC(=O)C(c1ccccc1Cl)N1CCc2sc(OC(=O)c3ccccc3OC(C)=O)cc2C1` (centres unmarked) [Free Base, methyl 2-(2-chlorophenyl)-2-(2-acetyl-salicylic acyloxy-4,5,6,7-tetrahydro-thieno[3,2-C]pyridine)-5-acetate]: the Thrombosis formation time with wistar rat [2] (setting [7]) is 165 ± 22.4 s; with wistar rat [2] (setting [8]), 261 ± 54.3#,& s. The Weight of thrombosis with wistar rat [3] (setting [7]) was 4.0 ± 0.6 mg; in the series on wistar rat [3] (setting [8]), 3.0 ± 0.5#,& mg. Moreover, the “Water solubility (in words)” value in series [4] is “almost insoluable in water”. Besides, the “Stability (in words)” value in series [5] was “not stable enough”.

In the case of `COC(=O)C(c1ccccc1Cl)N1CCc2sc(OC(=O)c3ccccc3OC(C)=O)cc2C1` (centres unmarked) [Hydrobromide], the Solubility in series [1] was determined as 500 µg/mL.

As for `COC(=O)C(c1ccccc1Cl)N1CCc2sc(OC(=O)c3ccccc3OC(C)=O)cc2C1` (centres unmarked) [Hydrochloride], in series [1], the Solubility is 20 µg/mL. Moreover, the Thrombosis formation time with wistar rat [2] (setting [7]) was 210.4 ± 51.1 s; in the series on wistar rat [2] (setting [8]), 319.6 ± 35.2#,H,&,Y s. Besides, the Weight of thrombosis with wistar rat [3] (setting [7]) is given as 3.2 ± 0.7#,Y mg; in the series on wistar rat [3] (setting [8]) it was 2.8 ± 0.5 mg.

With `COC(=O)C(c1ccccc1Cl)N1CCc2sc(OC(=O)c3ccccc3OC(C)=O)cc2C1` [L-camphor sulfonate], the Solubility in series [1] was found to be 4700 µg/mL. Besides, the Thrombosis formation time in the series with wistar rat [2] (setting [7]) is on record as 250.4 ± 35.2 ,Y,* s; in the series on wistar rat [2] (setting [8]), 360.2 ± 55.9#,H,&,Y,* s. Besides, the Weight of thrombosis with wistar rat [3] (setting [7]) is 3.0 ± 0.7#,Y mg; with wistar rat [3] (setting [8]), 2.5 ± 0.4 H,&,Y mg. For the same molecule, the Stability entry in series [6] is listed as “Stable”; in series [6] (listed as camphor sulfonate), “the most stable one”.

For `COC(=O)C(c1ccccc1Cl)N1CCc2sc(OC(=O)c3ccccc3OC(C)=O)cc2C1` (centres unmarked) [Methanesulfonate], the Solubility in series [1] amounted to 8200 µg/mL. The Stability entry in series [6] is recorded as “Stable”.

`COC(=O)C(c1ccccc1Cl)N1CCc2sc(OC(=O)c3ccccc3OC(C)=O)cc2C1` (centres unmarked) [P-toluenesulfonate]: the Solubility in series [1] came to 1200 µg/mL. In addition, in series [6], the Stability result is given as “Stable”.

The record behind these values is patent US9556196B2, “Anti-platelet compound addition salt” (GUANGZHOU HEERSHI PHARMA DEVELOPMENT CO., LTD, priority 2011, dated 2017).
